Results as given in BindingDB's records for doi:10.1021/jm000275p (Merck Research Laboratories, 2001).

Key:
[1] = target: Gonadotropin-releasing hormone receptor (Macaca mulatta); test: In vitro inhibition of gonadotropin-releasing hormone receptor in rhesus monkey
[2] = target: Gonadotropin-releasing hormone receptor (Canis familiaris); test: In vitro inhibition of binding to gonadotropin-releasing hormone receptor in dog
[3] = target: Gonadotropin-releasing hormone receptor (Macaca mulatta); test: Functional antagonism at the rhesus monkey gonadotropin-releasing hormone receptor
[4] = target: Gonadotropin-releasing hormone receptor (Canis familiaris); test: Functional antagonism at gonadotropin-releasing hormone receptor in dog (PI turnover)

- IC50 [1]: 0.5 nM
- IC50 [2]: 60 nM
- IC50 [3]: 7 nM
- IC50 [4]: 350 nM
Compound: Cc1cc(-c2c(OCC[C@@H]3CCN3)c3cc(C(=O)Nc4ccncn4)c(Cl)cc3[nH]c2=O)cc(C)c1C [4-(2-Azetidin-2-yl-ethoxy)-7-chloro-2-oxo-3-(3,4,5-trimethyl-phenyl)-1,2-dihydro-quinoline-6-carboxylic acid pyrimidin-4-ylamide]
